Each structure is given as a SMILES string.

In one assay the test system is B-cell line BJAB. The assay is described as follows: BJAB toxicity, Cell Titer Glo assay. It counts as cell-based.
Conditions: not given
The procedure: Seed 50 μl cells (1×10^6/ml) into each well containing 50 μl compound. The final vehicle concentration is 0.5% DMSO, 1.5% MeOH. Shake plates for 1 minute to mix cells and compound. Incubate plates at 37° C. (5% CO2) for 18 hours. Next day, harvest 50 μl cells from each well, add to 50 μl Cell Titer Glo reagent ([…]). Shake plates for 1 minute. Read on luminometer.
In general terms: ATP-based viability assays read luminescence as a measure of living cells.
With `Cc1cc(Nc2ncc(F)c(Nc3cccc(O)c3)n2)cc(Cl)c1O` [Compound R940233], the IC50 is greater than 4.33 µM.

As to `Fc1cnc(Nc2cccc(OCCN3CCOCC3)c2)nc1Nc1ccc2c(c1)OCCO2` [Compound R926511], the IC50 is greater than 4.33 µM.

Turning to `OCCOc1cccc(Nc2ncc(F)c(Nc3cccc(OCCO)c3)n2)c1` [Compound R935075], the IC50 is greater than 4.33 µM.

For the compound `O=C(c1cc2cc(Nc3ncc(F)c(Nc4ccc5c(c4)OCCO5)n3)ccc2o1)N1CCNCC1` [Compound R926501], the IC50 was greater than 4.33 µM.

For a further assay, the system named is cultured human mast cells (CHMC). The experiment in a line: CHMC high cell density IgE activation: histamine. It is filed as cell-based.
Conditions: not given
An outline of the steps: (§1)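 IgE-sensitized CHMC at 1-2 ×10^6 cells/ml were preincubated with compound (0.5% DMSO) for 1 h at 37 °C, then stimulated with anti-IgE for 1 h before supernatant collection. Pellets were reincubated with compound for 7 h at 37 °C, and mediators were measured by ELISA on diluted supernatants.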
Compound `Cc1cc(Nc2ncc(F)c(Nc3cccc(O)c3)n2)cc(Cl)c1O` [Compound R940233] returned an IC50 of 586 nM.

The test system of another assay is Jurkat cells. The assay is described as follows: Jurkat toxicity, Cell Titer Glo assay. It is filed as cell-based, human.
Conditions: not given
The procedure: Seed 50 μl cells (1×10^6/ml) into each well containing 50 μl compound. […] Shake plates for 1 minute to mix cells and compound. Incubate plates at 37° C. […] Next day, harvest 50 μl cells from each well, add to 50 μl Cell Titer Glo reagent ([…]). Shake plates for 1 minute. Read on luminometer.
In turn, `Cc1cc(Nc2ncc(F)c(Nc3cccc(O)c3)n2)cc(Cl)c1O` [Compound R940233] registered an IC50 greater than 4.33 µM.

Compound `Fc1cnc(Nc2cccc(OCCN3CCOCC3)c2)nc1Nc1ccc2c(c1)OCCO2` [Compound R926511] showed an IC50 greater than 4.33 µM.

Turning to `OCCOc1cccc(Nc2ncc(F)c(Nc3cccc(OCCO)c3)n2)c1` [Compound R935075], the IC50 was greater than 4.33 µM.

`O=C(c1cc2cc(Nc3ncc(F)c(Nc4ccc5c(c4)OCCO5)n3)ccc2o1)N1CCNCC1` [Compound R926501] gave an IC50 greater than 4.33 µM.

The next assay has as its system basophil cells (human peripheral blood). The experiment in a line: Basophil ionomycin activation: histamine release assay. It counts as cell-based. As to conditions: basophils, ionomycin activation, histamine release; read-out: Basophils Ionomycin Histamine IC50. An outline of the steps: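 Dextran-sedimented leukocytes from peripheral blood of dust-mite-allergic human donors were incubated with compound (8 concentrations, 0.5% DMSO, triplicate) and then stimulated with 2 μM ionomycin stock (20 μl added) for 30 min at 37° C. Histamine released into the supernatant was measured by ELISA.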
In the case of `O=C(c1cc2cc(Nc3ncc(F)c(Nc4ccc5c(c4)OCCO5)n3)ccc2o1)N1CCNCC1` [Compound R926501], the IC50 is greater than 10 µM.

Another assay relates to cultured human mast cells (CHMC). The assay is described as follows: CHMC high cell density IgE activation: TNFalpha. As to conditions: read-out: CHMC high density TNF-alpha. It is filed as cell-based. An outline of the steps:
as §1
Take `Cc1cc(Nc2ncc(F)c(Nc3cccc(O)c3)n2)cc(Cl)c1O` [Compound R940233]: the IC50 was determined as 2250 nM.

Take `OCCOc1cccc(Nc2ncc(F)c(Nc3cccc(OCCO)c3)n2)c1` [Compound R935075]: the IC50 was greater than 2000 nM.

In another assay the test system is Human Jurkat T-cells (clone N). The experiment in a line: Jurkat T-cell activation (anti-TCR, CD69 upregulation). It counts as cell-based.
Conditions: not given
An outline of the steps:
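Jurkat cells in RPMI + 5% FBS preincubated with compound 1 h at 37 °C, then stimulated with anti-TCR C305 at 500 ng/ml for 20 h. CD69 surface expression stained with anti-CD69-APC and read by flow cytometry; IC50 versus solvent-only control.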
Consider `Cc1cc(Nc2ncc(F)c(Nc3cccc(O)c3)n2)cc(Cl)c1O` [Compound R940233], for which the IC50 came to 2170 nM.

On to `OCCOc1cccc(Nc2ncc(F)c(Nc3cccc(OCCO)c3)n2)c1` [Compound R935075], for which the IC50 came out at 5370 nM.

Take `O=C(c1cc2cc(Nc3ncc(F)c(Nc4ccc5c(c4)OCCO5)n3)ccc2o1)N1CCNCC1` [Compound R926501]: the IC50 was determined as 1680 nM.

A further assay has as its system cultured human mast cells (CHMC). The assay is described as follows: CHMC high cell density IgE activation: LTC4.
Conditions: not given
It is filed as cell-based. An outline of the steps: as §1
Compound `Cc1cc(Nc2ncc(F)c(Nc3cccc(O)c3)n2)cc(Cl)c1O` [Compound R940233] came in with an IC50 of 118 nM.

Compound `OCCOc1cccc(Nc2ncc(F)c(Nc3cccc(OCCO)c3)n2)c1` [Compound R935075] yielded an IC50 of less than 220 nM.

For a further assay the test system is unchanged. The experiment in a line: CHMC low cell density IgE activation: tryptase assay. It counts as cell-based. Particulars: Low Density; read-out: CHMC anti-IgE Tryptase. An outline of the steps: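 CHMC resuspended in pre-warmed MT buffer at 1000-1500 cells/well (donor-dependent) and preincubated 1 hr at 37° C, then stimulated with anti-IgE for 30 min at 37° C; unstimulated wells got MT alone. Supernatant tryptase activity read with tryptase substrate after 30 min at room temperature.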
Regarding `Cc1cc(Nc2ncc(F)c(Nc3cccc(O)c3)n2)cc(Cl)c1O` [Compound R940233], the IC50 was determined as 132 nM.

Regarding `OCCOc1cccc(Nc2ncc(F)c(Nc3cccc(OCCO)c3)n2)c1` [Compound R935075], the IC50 came to 930 nM.

A further assay shares this test system. The assay is described as follows: CHMC high cell density IgE activation: hexos.
Conditions: not given
It counts as cell-based.
Compound `Cc1cc(Nc2ncc(F)c(Nc3cccc(O)c3)n2)cc(Cl)c1O` [Compound R940233] showed an IC50 of 577 nM.

`OCCOc1cccc(Nc2ncc(F)c(Nc3cccc(OCCO)c3)n2)c1` [Compound R935075] returned an IC50 of 647 nM.

`O=C(c1cc2cc(Nc3ncc(F)c(Nc4ccc5c(c4)OCCO5)n3)ccc2o1)N1CCNCC1` [Compound R926501] displayed an IC50 greater than 2000 nM.

In a further assay the target is T1, Syk kinase (Homo sapiens, UniProt P43405).
T1 construct: purchased Upstate, Lake Placid NY
The experiment in a line: Syk kinase biochemical fluorescence polarization assay. As to conditions: isolated Syk kinase, fluorescence polarization, 4 uM ATP. On the technique in general: In fluorescence polarisation assays a small probe gives low polarisation when free and higher when bound to something large.
Compound `Cc1cc(Nc2ncc(F)c(Nc3cccc(O)c3)n2)cc(Cl)c1O` [Compound R940233] gave an IC50 of 151 nM.

Regarding `O=C(c1cc2cc(Nc3ncc(F)c(Nc4ccc5c(c4)OCCO5)n3)ccc2o1)N1CCNCC1` [Compound R926501], the IC50 was 193 nM.

The subject of the next assay is cultured human mast cells (CHMC). The experiment in a line: CHMC low cell density ionomycin activation: tryptase assay. It is filed as cell-based. Particulars: Low Density CHMC, ionomycin activation, tryptase release; read-out: CHMC Ionomycin Tryptase IC50.
As to `Fc1cnc(Nc2cccc(OCCN3CCOCC3)c2)nc1Nc1ccc2c(c1)OCCO2` [Compound R926511], the IC50 was greater than 10 µM.

The assay is the same for the next values; noted with them: Low Density; read-out: CHMC Ionomycin Tryptase.
Regarding `Cc1cc(Nc2ncc(F)c(Nc3cccc(O)c3)n2)cc(Cl)c1O` [Compound R940233], the IC50 is greater than 10 µM.

For `OCCOc1cccc(Nc2ncc(F)c(Nc3cccc(OCCO)c3)n2)c1` [Compound R935075], the IC50 is greater than 10 µM.

Another assay has the same test system. The assay is described as follows: CHMC high cell density IgE activation: IL-13. It counts as cell-based.
Conditions: not given
The procedure:
After sensitizing, cells are counted, pelleted (1000 rpm, 5-10 minutes), and resuspended at 1-2 ×10^6 cells/ml in MT buffer. Add 100 ul of cell suspension to each well and 100 ul of compound dilutions. The final vehicle concentration is 0.5% DMSO. Incubate at 37° C. (5% CO2) for 1 hour. After 1 hour of compound treatment, stimulate cells with 6× anti-IgE. Mix wells with the cells and allow plates to incubate at 37° C. (5% CO2) for one hour. After 1 hour incubation, pellet cells (10 minutes, 1000 RPM) and collect 200 ul per well of the supernatant, being careful not to disturb pellet. Place the supernatant plate on ice. During the 7-hour step (see next) perform tryptase assay on supernatant that had been diluted 1:500. Resuspend cell pellet in 240 ul of CM media containing 0.5% DMSO and corresponding concentration of compound. Incubate CHMC cells for 7 hours at 37° C. (5% CO2). After incubation, pellet cells (1000 RPM, 10 minutes) and collect 225 ul per well and place in −80° C. until ready to perform ELISAS. ELISAS are performed on appropriately diluted samples (determined empirically for each donor cell population so that the sample measurement falls within the standard curve) following the supplier's instructions.
`Cc1cc(Nc2ncc(F)c(Nc3cccc(O)c3)n2)cc(Cl)c1O` [Compound R940233] gave an IC50 of 1780 nM.

`Fc1cnc(Nc2cccc(OCCN3CCOCC3)c2)nc1Nc1ccc2c(c1)OCCO2` [Compound R926511] yielded an IC50 greater than 2000 nM.

Another assay shares this test system. The assay is described as follows: CHMC high cell density IgE activation: tryptase.
Conditions: not given
It counts as cell-based.
In turn, `Cc1cc(Nc2ncc(F)c(Nc3cccc(O)c3)n2)cc(Cl)c1O` [Compound R940233] gave an IC50 of 642 nM.

`OCCOc1cccc(Nc2ncc(F)c(Nc3cccc(OCCO)c3)n2)c1` [Compound R935075] had an IC50 of 1210 nM.

As for `O=C(c1cc2cc(Nc3ncc(F)c(Nc4ccc5c(c4)OCCO5)n3)ccc2o1)N1CCNCC1` [Compound R926501], the IC50 is greater than 2000 nM.

Source of the values: patent publication US8158621B2, “Methods of treating or preventing autoimmune diseases with 2,4-pyrimidinediamine compounds” (Rigel Pharmaceuticals, Inc., priority 2002, dated 2012).
